Test results taken from ChEMBL document CHEMBL1154532, “Antibacterial alkoxybenzamide inhibitors of the essential bacterial cell division protein FtsZ” (2009).
Values after ≈ are worked out from the molar mass of the structure shown.

Tests used:
Staphylococcus aureus [1] = assay: Antibacterial activity against Staphylococcus aureus ATCC 29213; format: functional
Bacillus subtilis = assay: Antibacterial activity against Bacillus subtilis 168; format: functional
[2] = molecular target: T1, Cell division protein FtsZ (Bacillus subtilis (strain 168)) (UniProt P17865); assay: Inhibition of FtsZ-mediated cell division in Bacillus subtilis 168 assessed as drug concentration required to produce filamentation
T1 sequence (whole entry): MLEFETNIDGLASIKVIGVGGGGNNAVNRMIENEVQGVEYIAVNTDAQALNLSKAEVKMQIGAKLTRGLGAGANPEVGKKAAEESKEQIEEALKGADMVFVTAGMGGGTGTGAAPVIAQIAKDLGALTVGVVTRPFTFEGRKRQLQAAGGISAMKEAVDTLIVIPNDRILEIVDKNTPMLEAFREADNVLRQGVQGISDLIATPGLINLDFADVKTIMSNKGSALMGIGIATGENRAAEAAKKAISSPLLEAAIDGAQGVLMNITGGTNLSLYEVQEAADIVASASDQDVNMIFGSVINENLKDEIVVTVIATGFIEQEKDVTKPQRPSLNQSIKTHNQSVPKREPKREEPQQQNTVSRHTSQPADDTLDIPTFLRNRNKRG

Staphylococcus aureus [3] = assay: Antibacterial activity against methicillin-susceptible Staphylococcus aureus ATCC 601055; format: functional
Staphylococcus aureus [4] = assay: Antibacterial activity against Staphylococcus aureus ATCC 601055 with FtsZ […] point mutation; format: functional
Staphylococcus aureus [5] = assay: Antibacterial activity against Staphylococcus aureus ATCC 601055 with FtsZ P300R point mutation; format: functional
[6] = molecular target: T2, Cell division protein FtsZ (Staphylococcus aureus) (UniProt P0A031); assay: Inhibition of FtsZ-mediated cell division in Staphylococcus aureus ATCC 29213 assessed as drug concentration required to produce ballooning
T2 sequence (whole entry): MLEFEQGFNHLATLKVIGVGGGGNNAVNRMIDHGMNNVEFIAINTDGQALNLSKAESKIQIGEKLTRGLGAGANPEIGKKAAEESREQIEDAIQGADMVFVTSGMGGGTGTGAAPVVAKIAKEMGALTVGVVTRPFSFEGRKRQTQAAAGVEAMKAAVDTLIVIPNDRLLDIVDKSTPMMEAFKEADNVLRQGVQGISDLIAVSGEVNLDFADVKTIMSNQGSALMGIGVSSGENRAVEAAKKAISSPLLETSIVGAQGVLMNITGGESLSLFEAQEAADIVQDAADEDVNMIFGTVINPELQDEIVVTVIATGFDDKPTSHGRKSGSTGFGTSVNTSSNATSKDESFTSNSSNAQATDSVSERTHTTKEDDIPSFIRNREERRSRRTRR

Staphylococcus aureus [7] = assay: Antibacterial activity against methicillin-susceptible Staphylococcus aureus ATCC 25923; format: functional
Staphylococcus aureus [8] = assay: Antibacterial activity against methicillin-resistant Staphylococcus aureus ATCC 43300; format: functional
Staphylococcus aureus [9] = assay: Antibacterial activity against […] Staphylococcus aureus ATCC 29213; format: functional
Staphylococcus aureus [10] = assay: Antibacterial activity against methicillin-susceptible Staphylococcus aureus ATCC 19636; format: functional
[11] = test system: Staphylococcus epidermidis; assay: Antibacterial activity against Staphylococcus epidermidis ATCC 12228; format: functional
Staphylococcus aureus [12] = assay: Antibacterial activity against methicillin-resistant Staphylococcus aureus ATCC 607004; format: functional
Staphylococcus aureus [13] = assay: Antibacterial activity against methicillin-resistant Staphylococcus aureus ATCC 700698; format: functional

| Compound | MIC (Staphylococcus aureus [1]) | MIC (Bacillus subtilis) | Activity [2] | other results |
| --- | --- | --- | --- | --- |
| CCCCCCCCCCOc1cccc(C(N)=O)c1 | 64 µg/mL (≈ 231 µM) | 1 µg/mL (≈ 3.6 µM) | 0.5 µg/mL | – |
| CCCCCCCCOc1cccc(C(N)=O)c1 | 4 µg/mL (≈ 16 µM) | 1 µg/mL (≈ 4.01 µM) | 0.37 µg/mL | – |
| CCCCCCCCCOc1cccc(C(N)=O)c1 | 2 µg/mL (≈ 7.59 µM) | 0.5 µg/mL (≈ 1.9 µM) | 0.18 µg/mL | MIC (Staphylococcus aureus [3]): 2 µg/mL (≈ 7.59 µM); MIC (Staphylococcus aureus [4]): > 128 µg/mL; MIC (Staphylococcus aureus [5]): > 128 µg/mL |
| CNc1cccc(C(N)=O)c1 | – | > 4000 µg/mL | – | – |
| CCCCCCCCCOc1ccc(F)c(C(N)=O)c1 | 8 µg/mL (≈ 28.4 µM) | 1 µg/mL (≈ 3.55 µM) | 1 µg/mL | Activity [6]: 2 µg/mL |
| CNC(=O)c1cccc(OC)c1 | – | > 4000 µg/mL | – | – |
| NC(=O)c1cccc(O)c1 | – | > 4000 µg/mL | 3000 µg/mL | – |
| CCCCCCCCCCCCOc1cccc(C(N)=O)c1 | > 256 µg/mL | – | > 128 µg/mL | – |
| CCCCOc1cccc(C(N)=O)c1 | 128 µg/mL (≈ 662 µM) | 128 µg/mL (≈ 662 µM) | 24 µg/mL | – |
| O=C(O)c1cn(C2CC2)c2cc(N3CCNCC3)c(F)cc2c1=O [CIPROFLOXACIN] | 0.5 µg/mL (≈ 1.51 µM) | – | – | – |
| NC(=O)c1cccc(OC(F)(F)F)c1 | – | > 4000 µg/mL | – | – |
| CCCCCCCOc1cccc(C(N)=O)c1 | 8 µg/mL (≈ 34 µM) | 4 µg/mL (≈ 17 µM) | 1.5 µg/mL | – |
| COc1cccc(C(N)=O)c1 | 2050 µg/mL (≈ 13500 µM) | 4000 µg/mL (≈ 26500 µM) | 500 µg/mL | MIC (Staphylococcus aureus [7]): 4100 µg/mL (≈ 27100 µM); MIC (Staphylococcus aureus [3]): 4000 µg/mL (≈ 26500 µM); MIC (Staphylococcus aureus [4]): > 8000 µg/mL; MIC (Staphylococcus aureus [8]): 4100 µg/mL (≈ 27100 µM); MIC (Staphylococcus aureus [9]): 2050 µg/mL (≈ 13500 µM); MIC (Staphylococcus aureus [10]): 2050 µg/mL (≈ 13500 µM); MIC [11]: 4100 µg/mL (≈ 27100 µM); MIC (Staphylococcus aureus [12]): 4100 µg/mL (≈ 27100 µM); MIC (Staphylococcus aureus [5]): > 8000 µg/mL; MIC (Staphylococcus aureus [13]): 4100 µg/mL (≈ 27100 µM) |
| O=C(N[C@H](CO)[C@H](O)c1ccc([N+](=O)[O-])cc1)C(Cl)Cl [CHLORAMPHENICOL] | 4 µg/mL (≈ 12.4 µM) | – | – | – |
| COc1cc(OC)cc(C(N)=O)c1 | – | > 4000 µg/mL | – | – |
| COc1cccc(CN)c1 | – | 250 µg/mL (≈ 1820 µM) | – | – |
| CCCCCCOc1cccc(C(N)=O)c1 | 16 µg/mL (≈ 72.3 µM) | 16 µg/mL (≈ 72.3 µM) | 8 µg/mL | MIC (Staphylococcus aureus [7]): 16 µg/mL (≈ 72.3 µM); MIC (Staphylococcus aureus [3]): 32 µg/mL (≈ 145 µM); MIC (Staphylococcus aureus [4]): > 128 µg/mL; MIC (Staphylococcus aureus [8]): 16 µg/mL (≈ 72.3 µM); MIC (Staphylococcus aureus [9]): 16 µg/mL (≈ 72.3 µM); MIC (Staphylococcus aureus [10]): 16 µg/mL (≈ 72.3 µM); MIC [11]: 32 µg/mL (≈ 145 µM); MIC (Staphylococcus aureus [12]): 32 µg/mL (≈ 145 µM); MIC (Staphylococcus aureus [5]): > 128 µg/mL; MIC (Staphylococcus aureus [13]): 32 µg/mL (≈ 145 µM) |
| CCCCCCCCCOc1ccc(F)c(C(N)=O)c1Cl | 2 µg/mL (≈ 6.33 µM) | 0.5 µg/mL (≈ 1.58 µM) | 0.5 µg/mL | Activity [6]: 1 µg/mL |
| C/C(=C\C(=O)OCCCCCCCCC(=O)O)C[C@@H]1OC[C@H](C[C@@H]2O[C@H]2[C@@H](C)[C@H](C)O)[C@@H](O)[C@H]1O [MUPIROCIN] | 0.12 µg/mL (≈ 0.24 µM) | – | – | – |
| CCCOc1cccc(C(N)=O)c1 | 256 µg/mL (≈ 1430 µM) | 500 µg/mL (≈ 2790 µM) | 375 µg/mL | – |
| CC(=O)O[C@H]1C[C@@]2(C)[C@@H](C[C@@H](O)[C@H]3[C@@]4(C)CC[C@@H](O)[C@@H](C)[C@@H]4CC[C@@]32C)/C1=C(\CCC=C(C)C)C(=O)O [FUSIDIC ACID] | 0.06 µg/mL (≈ 0.116 µM) | – | – | – |
| CCCCCCCCCCCOc1cccc(C(N)=O)c1 | > 256 µg/mL | 4 µg/mL (≈ 13.7 µM) | 1 µg/mL | – |
| CCCCCCCCCOc1ccc(Cl)c(C(N)=O)c1F | 1 µg/mL (≈ 3.17 µM) | 0.5 µg/mL (≈ 1.58 µM) | 0.25 µg/mL | Activity [6]: 0.5 µg/mL |
| COc1cccc(C(=O)O)c1 | – | > 4000 µg/mL | – | – |
| CCCCCOc1cccc(C(N)=O)c1 | 32 µg/mL (≈ 154 µM) | 32 µg/mL (≈ 154 µM) | 24 µg/mL | – |
| CCCCCCCCCOc1ccc(F)c(C(N)=O)c1F | 0.5 µg/mL (≈ 1.67 µM) | 0.125 µg/mL (≈ 0.418 µM) | 0.125 µg/mL | Activity [6]: 0.25 µg/mL |
| COc1cccc(C(=O)NO)c1 | – | 4000 µg/mL (≈ 23900 µM) | – | – |

Further lines, with some results ahead:

| MIC (Staphylococcus aureus [1]) | MIC (Bacillus subtilis) | Activity [2] | Compound | other results |
| --- | --- | --- | --- | --- |
| – | > 4000 µg/mL | – | COc1ccc([N+](=O)[O-])c(C(N)=O)c1 | – |
| 0.5 µg/mL (≈ 1.78 µM) | 0.125 µg/mL (≈ 0.444 µM) | 0.125 µg/mL | CCCCCCCCCOc1cccc(C(N)=O)c1F | Activity [6]: 0.5 µg/mL |
| 512 µg/mL (≈ 3030 µM) | 512 µg/mL (≈ 3030 µM) | 128 µg/mL | COc1cccc(C(N)=O)c1F | – |
| – | > 4000 µg/mL | – | COc1cc(C(N)=O)ccc1F | – |
| – | 2000 µg/mL (≈ 12000 µM) | – | COc1cccc(C(N)=S)c1 | – |
| – | > 4000 µg/mL | – | COc1ccc(C(N)=O)cc1 | – |
| – | > 4000 µg/mL | – | COc1cccc(C(N)=O)c1C | – |
| – | > 4000 µg/mL | – | CSc1cccc(C(N)=O)c1 | – |
| – | > 4000 µg/mL | – | COc1cccc(CC(N)=O)c1 | – |
| – | 800 µg/mL (≈ 4730 µM) | – | COc1ccc(F)c(C(N)=O)c1 | – |
| – | > 2000 µg/mL | – | Cc1cccc(C(N)=O)c1 | – |
| – | > 4000 µg/mL | – | COc1cc(C(N)=O)ccc1[N+](=O)[O-] | – |
| – | > 4000 µg/mL | – | COc1cccc(C(N)=O)c1[N+](=O)[O-] | – |
| – | > 4000 µg/mL | – | COc1ccc(C(N)=O)cc1OC | – |
| 512 µg/mL (≈ 2740 µM) | 512 µg/mL (≈ 2740 µM) | 256 µg/mL | COc1ccc(F)c(C(N)=O)c1F | – |
| – | > 4000 µg/mL | – | COc1ccc(OC)c(C(N)=O)c1 | – |
| – | > 4000 µg/mL | 2050 µg/mL | COc1ccc(F)c(C(N)=O)c1Cl | – |
| – | > 4000 µg/mL | – | COc1cccc(C(N)=O)c1OC | – |
| 1020 µg/mL (≈ 6200 µM) | 2000 µg/mL (≈ 12100 µM) | 500 µg/mL | CCOc1cccc(C(N)=O)c1 | – |
| – | 1020 µg/mL (≈ 5030 µM) | 256 µg/mL | COc1ccc(Cl)c(C(N)=O)c1F | – |
